# In patent US12492183B2, “Tetrahydroquinazoline derivatives as selective cytotoxic agents” (Merck Sharp & Dohme LLC, priority 2020, dated 2025):
# System: PBMCs infected with VSV-G pseudotyped HIV virus (VSV-G/pNLG1-P2A-ΔEnv)
# Assay: cells
# Format: cell-based
# Settings: Homo sapiens, PBMC, read-out: TACK EC50
row,SMILES,EC50 [nM]
1,"Nc1nccc(Cc2cc3c(cc2Cl)[C@@](C#CC2CC2)(C(F)(F)F)NC(=O)N3)n1 [Example 31, (S)-7-((2-aminopyrimidin-4-yl)methyl)-6-chloro-4-(cyclo-propylethynyl)-4-(trifluoro-methyl)-3,4-dihydroquinazo-lin-2(1H)-one]",58.7
2,"CC(F)(F)[C@@]1(C#CC2CC2)NC(=O)Nc2cc(Cc3ccnc(N)n3)ccc21 [Example 26, (S)-7-((2-aminopyrimidin-4-yl)methyl)-4-(cyclopropyl-ethynyl)-4-(1,1-difluoroethyl)-3,4-dihydroquinazolin-2(1H)-one]",31.2
3,"Nc1nc(Cc2ccc3c(c2)NC(=O)N[C@]3(C#CC2CC2)C(F)(F)F)ccc1CO [Example 45, (S)-7-((6-amino-5-(hydroxymethyl)pyridin-2-yl)methyl)-4-(cyclopropylethynyl)-4-(trifluoromethyl)-3,4-dihydroquinazolin-2(1H)-one]",53.2
4,"NS(=O)(=O)c1ccc(Cc2ccc3c(c2)NC(=O)N[C@]3(C#CC2CC2)C(F)(F)F)cc1 [Example 9, (S)-4-((4-(cyclopropylethynyl)-2-oxo-4-(trifluoromethyl)-1,2,3,4-tetrahydroquinazolin-7-yl)meth-yl)benzenesulfonamide]",193
5,"Cc1cc[nH]c(=O)c1Cc1ccc2c(c1)NC(=O)N[C@]2(C#CC1CC1)C(F)(F)F [Example 2, (S)-4-(cyclopropylethynyl)-7-((4-methyl-2-oxo-1,2-dihydropyridin-3-yl)methyl)-4-(trifluoromethyl)-3,4-dihydroquinazolin-2(1H)-one]",132
6,"O=C1Nc2cc(Cc3ccc(CO)cn3)c(F)cc2[C@@](C#CC2CC2)(C(F)(F)F)N1 [Example 41, (S)-2-((4-(cyclopropylethynyl)-6-fluoro-2-oxo-4-(trifluoromethyl)-1,2,3,4-tetrahydroquinazolin-7-yl)methyl)-5-(hydroxymethyl)pyridin-1-ium 2,2,2-trifluoroacetate]",90.7
7,"Cc1nc(C)c(Cc2cc3c(cc2Cl)[C@@](C#CC2CC2)(C(F)(F)F)NC(=O)N3)c(=O)[nH]1 (single isomer, unassigned) [Example 62B]",68.7
8,"CC(F)(F)[C@@]1(C#CC2CC2)NC(=O)Nc2cc(Cc3nc(N)ncc3F)ccc21 [Example 58, (S)-7-((2-amino-5-fluoropyrimidin-4-yl)methyl)-4-(cyclopropylethynyl)-4-(1,1-difluoroethyl)-3,4-dihydroquinazolin-2(1H)-one]",82.8
9,"Cn1cc(Cc2ccc3c(c2)NC(=O)N[C@]3(C#CC2CC2)C(F)(F)F)ccc1=O [Example 4, (S)-4-(cyclopropylethynyl)-7-((1-methyl-6-oxo-1,6-dihydropyridin-3-yl)methyl)-4-(trifluoromethyl)-3,4-dihydroquinazolin-2(1H)-one]",148
10,"Cc1cc2c(cc1Cc1ccnc(N)n1)NC(=O)N[C@]2(C#CC1CC1)C(F)(F)F [Example 33, (S)-7-((2-aminopyrimidin-4-yl)methyl)-4-(cyclopropyl-ethynyl)-6-methyl-4-(trifluoro-methyl)-3,4-dihydroquinazo-lin-2(1H)-one]",183
11,"CS(=O)(=O)c1ccc(Cc2cc3c(cc2F)[C@@](C#CC2CC2)(C(F)(F)F)NC(=O)N3)cc1 [Example 10, (S)-4-(cyclopropylethynyl)-6-fluoro-7-(4-(methylsulfonyl)-benzyl)-4-(trifluoromethyl)-3,4-dihydroquinazolin-2(1H)-one]",380
12,"Nc1ncc(F)c(Cc2ccc3c(c2)NC(=O)N[C@]3(C#CC2CC2)C(F)(F)F)n1 [Example 15, (S)-7-((2-amino-5-fluoropyrimi-din-4-yl)methyl)-4-(cycloprop-ylethynyl)-4-(trifluoromethyl)-3,4-dihydroquinazolin-2(1H)-one]",21.4
13,"CC(F)(F)[C@@]1(C#CC2CC2)NC(=O)Nc2cc(Cc3ccc(S(N)(=O)=O)cc3)ccc21 (single isomer, unassigned) [Example 20]",115
